Data on four molecules can be found in patent US20110275661A1, “TRICYCLIC NITROGEN COMPOUNDS USED AS ANTIBACTERIALS” (Glaxo Group Limited, priority 2008, published 2011).

Where a name gives a salt, the structure may show the parent alone. Read-outs that look alike come from different tables or passages of the source. Bounds are passed on as bounds.

This assay deals with Mycobacterium tuberculosis H37Rv. The assay is described as follows: Mycobacterium tuberculosis H37Rv Inhibition Assay. It counts as cell-based. The conditions noted are these: ATCC 25618 / H37Rv, read-out: MIC value.
Where [1] appears, read: H37Rv strain (ATCC25618), Middlebrook 7H9+ADC medium, resazurin fluorescence.

A word on the MIC: it is the least concentration at which growth counts as inhibited. For the molecule `Cc1cc(=O)n2c3c1ccc(=O)n3[C@H](CN1CCC(NCc3cc4c(cn3)OCCC4)CC1)C2` [Example 1, (1R)-1-({4-[(3,4-dihydro-2H-pyrano[2,3-c]pyridin-6-ylmethyl)amino]-1-piperidinyl}methyl)-6-methyl-1,2-dihydro-4H,9H-imidazo[1,2,3-4]-1,8-naphthyridine-4,9-dione hydrochloride], the MIC under setting [1] was less than 2 µg/mL. As for `Cc1cc(=O)n2c3c1ccc(=O)n3[C@H](CN1CCC(NCc3cc4c(cn3)OCCS4)CC1)C2` [Example 2, (1R)-1-({4-[(2,3-dihydro[1,4]oxathiino[2,3-c]pyridin-7-ylmethyl)amino]-1-piperidinyl}methyl)-6-methyl-1,2-dihydro-4H,9H-imidazo[1,2,3-ij]-1,8-naphthyridine-4,9-dione hydrochloride], the minimal inhibitory concentration (MIC) is less than 2 µg/mL. The same measure, in the same setting: next, `Cc1cc(=O)n2c3c1ccc(=O)n3[C@H](CN1CCC(NCc3cc4c(cn3)OCCO4)CC1)C2` [Example 3, (1R)-1-({4-[(2,3-dihydro[1,4]dioxino[2,3-c]pyridin-7-ylmethyl)amino]-1-piperidinyl}methyl)-6-methyl-1,2-dihydro-4H,9H-imidazo[1,2,3-ij]-1,8-naphthyridine-4,9-dione hydrochloride]: more than 2.5 µg/mL.

For the molecule `Cc1cc(=O)n2c3c1ccc(=O)n3[C@H](CN1CCC(NCc3cc4c(cn3)OCS4)CC1)C2` [Example 4, (1R)-6-methyl-1-({4-[([1,3]oxathiolo[5,4-c]pyridin-6-ylmethyl)amino]-1-piperidinyl}methyl)-1,2-dihydro-4H,9H-imidazo[1,2,3-4]-1,8-naphthyridine-4,9-dione hydrochloride], the MIC under setting [1] is less than 2 µg/mL.
